The values that follow come from patent publication US10195220B2, “Hydrogen sulphide compounds” (Aston University, priority 2013, dated 2019).

The subject of data set [1] is first trimester human placental explants. Briefly: Angiogenic factor release from first trimester placental villus explants (ELISA of conditioned medium). The data set is classed as cell-based. The settings on record: increasing concentration of PAG over 24 hours. An excerpt:
Institutional Ethics Committee approved the blood and tissue collection and written informed consent was obtained. We analysed blood samples from women with singleton pregnancies recruited in the Low- and High-Risk Clinics and Labour and Delivery Unit. All women were followed prospectively from enrolment until delivery. Human placental tissues were collected from pregnancies complicated by preeclampsia and uncomplicated pregnancies delivered by elective Caesarean. Samples of placental tissue were processed for RNA extraction and maternal plasma from the same patients (n=14 PE and n=14 control) were used for analysis. From another set of patients placenta (n=5 PE and n=5 control) was collected for the immunohistochemical study. Preeclampsia was defined as blood pressure >140/90 mm Hg on at least 2 consecutive measurements and maternal proteinuria of at least 300 mg/24 h. First trimester placental tissues (6-9 weeks gestational age) were retrieved from normal pregnancies that had undergone elective termination. Villus explants were prepared as described previously.^29 Briefly, human placental villus explants were incubated with or without PAG for 24 hours, and conditioned media collected and assayed for sFlt-1 or sEng and PlGF.
(§1) Enzyme-linked immunosorbent assay (ELISA) kits for human and murine soluble Flt-1, soluble endoglin and PlGF were obtained from R&D Systems and performed according to the manufacturer's specifications.
Angiogenic factors produced by placenta are important in regulating placental vascular development.^33 Imbalance of pro- and anti-angiogenic factors generated by the placenta^29 may account for the widespread maternal endothelial dysfunction in preeclampsia.^34 To investigate whether reduced levels of CSE has any effect on the production of placental angiogenic factor production, sFlt-1, sEng, and PlGF levels were measured in conditioned medium from first trimester human placental explants in the presence of increasing concentration of CSE inhibitor PAG over 24 hours.

For data set [2], the system named is pregnant C57Bl6/J mice. The experiment in a line: CSE inhibition in pregnant mice (PAG, with or without GYY4137). In kind it is in vivo. As for the experimental part: Eight to ten week old C57/black6 mice were mated. The first day of pregnancy (E0.5) was defined by the presence of a vaginal plug the following morning. Pregnant mice were randomly assigned into four groups: (i) saline (vehicle control), (ii) 25 mg/kg DL-propargylglycine (PAG; Sigma, Poole, U.K.), (iii) 50 mg/kg group PAG and (iv) 50 mg/kg
PAG with 0.25 mg/kg of slow-releasing H2S donor, GYY4137(Sigma). Mice were injected intraperitoneally (i.p.) with saline or PAG from E8.5. Blood pressure was measured by tail cuff-plethysmography. Mice were trained for measurement on alternate days from E4.5. Alternatively, mice were anesthetized by Ketamine/Xylazine cocktail. The carotid artery was isolated and cannulated with a 3-Fr high-fidelity microtip catheter connected to a pressure transducer (Millar Instruments, Houston, Tex., USA). Blood pressure was recorded and averaged over a 10-minute period. On E17.5, after blood pressure measurement and blood sample collection the animals were sacrificed and kidney, liver, and placenta were collected. The un-absorbed fetuses and placentas were counted and weighed.
Kidney, liver, and placenta were immersion fixed in 4% paraformaldehyde for 24 hours and processed to paraffin. A series of 5-μm sections were cut and processed for hematoxylin & eosin (H&E) staining.
as §1
Serial 3-5-μm sections of formalin-fixed, paraffin-embedded human and murine placental tissue were prepared for immunohistochemistry as previously described.^29 Biotin-labelled isolectin B4, anti-CSE (5 mg/ml) and isotype control were used. The staining was analyzed using a Nikon inverted microscope and an Image Pro Plus image analysis software (Media Cybernetics).
Citrated blood was obtained from women with uncomplicated pregnancies (n=14) and preeclampsia (n=14) and also from pregnant mice before termination of pregnancy. H2S levels were measured as described previously with modification.^32 Briefly, 75 μl plasma was mixed with 250 μl of 1% (w/v) zinc acetate and 425 μl water, followed by […] 50% trichloroacetic acid to remove protein. Then 133 μl 20 mM N-dimethyl-p-phenylenediamine sulphate in 7.2 mM HCl and 133 μl 30 μM FeCl3 in 1.2 mM HCl were added to the mixture. After 10 min incubation at room temperature, reaction mixtures were pelleted by centrifugation at 10,000 g (2 minutes). The absorbance of the resulting solution was measured at 670 nm with a spectrophotometer in a 96-well plate. The concentration of H2S in the solution was calculated against a calibration curve of sodium hydrogen sulfide.
Three groups (5-8/group) of pregnant C57Bl6/J mice were treated daily with vehicle or 25 mg/kg PAG or 50 mg/kg PAG from E8.5 to E16.5. After 8 days of treatment, plasma was pooled from all animals in each treatment group, and pooled H2S levels were measured. […] The labyrinth zone consists of cells of trophoblast and mesodermal origin that together undergo branching morphogenesis, resulting in a large surface area for nutrient and gas exchange between the mother and fetus. The maternal blood space is lined by trophoblast. During placental development, this space becomes progressively more finely divided.^37, 38 Using isolectin B4 to highlight the fetal endothelial cell,^39 we compared the anatomical features of the labyrinth zone in vehicle and 50 mg/kg PAG-treated mice.

Data set [3] deals with HTR-8/SVneo cells. The experiment in a line: Trophoblast cell invasion assay (Matrigel-coated transwell). In kind it is cell-based, human. The settings on record: PAG 50 μM, 24 h, p<0.01, n=3. The method, then:
The human extravillus trophoblast (EVT) cell line HTR-8/SVneo was a kind gift from Professor Charles H. Graham, Queen's University, Kingston, Ontario, Canada. The invasion assay was performed as described previously, with modification.30 Briefly, HTR-8/SVneo (50,000) cells treated with or without PAG were placed in the upper chamber of Matrigel-coated (1 mg/ml) transwell inserts (8 μm pore, Falcon, BD, UK) and housed in a 24-well plate. The cells were allowed to invade through the reconstituted extracellular matrix for 24 h in the presence or absence of 50 µM PAG (n=3). Trophoblast cells located on the under-surface of the transwell membrane were fixed with ice-cold methanol and stained with hematoxylin, and brightfield images were obtained with Nikon inverted microscope and Image Pro Plus image analysis software (Media Cybernetics). Transwell migration assays of HTR-8/SVneo cells in the presence of 50 µM of PAG were performed as described in Methods. (A) Migrated HTR-8/SVneo were stained with hematoxylin, and brightfield images were captured. (B) Cell numbers were counted, and results are expressed as a percentage of the control (n=3).

Data set [4] concerns rat. The note with it: chronic administration; cited from earlier work.
The subject of data set [5] is HUVEC. The settings on record: preeclamptic plasma, 100 mM NaHS.
Experimental: The spontaneous formation of capillary-like structures by HUVECs on growth factor-reduced Matrigel (Becton Dickinson, Bedford, Mass.), was used to assess angiogenic potential. HUVECs were treated with plasma samples collected from pregnancies complicated by preeclampsia and uncomplicated pregnancies with or without H2S donor (NaHS) and incubated at 37° C. for 24 hours. Ninety-six well plates were coated with Matrigel (10 mg/ml) according to the manufacturer's instructions. HUVECs (1×10^4 cells/well) were then seeded on Matrigel-coated plates.
The mark [6] stands for this setting: GYY4137 0.25 mg/kg with 50 mg/kg PAG.
[7] abbreviates: GYY4137 in mice treated with 50 mg/kg PAG.

As to `C#CCC(N)C(=O)O` (racemic) [PAG, DL-propargylglycine], in data set [1], the PlGF production entry is “significantly reduced”, the “sEng levels in conditioned medium” value is “remained unchanged” and the “sFlt-1 levels in conditioned medium” value was “remained unchanged”. The “fetal vasculature of the placenta (isolectin B4)” value in data set [2] (50 mg/kg PAG) was “irregular branching”. In addition, in data set [2] (50 mg/kg PAG alone), the “plasma levels of sEng” value is “induced” and the “plasma levels of sFlt-1” value is “induced”. In addition, in data set [2] (50 mg/kg PAG, blinded histology of placental sections), the “maternal blood space in the labyrinth zone, versus vehicle controls” value is on record as “appeared larger”. The “circulating H2S levels” value in data set [2] (25 or 50 mg/kg PAG i.p. daily E8.5 to E16.5, pooled plasma) is “dose-dependent decrease”. Besides, in data set [2] (PAG treated animals), the “proteinuria (renal pathological changes)” value is “not noted”. Further, the “circulating liver enzyme aspartate transaminase (AST), liver damage” value in data set [2] (PAG-treated animals) is “increased level”. The compound also showed a mean blood pressure in data set [2] (high dose PAG (50 mg/kg), vehicle control 64.74±2.04) of 74.40±4.61. Moreover, in data set [2] (higher dose PAG (50 mg/kg), after 8 days of treatment, pooled plasma), the “reduction of plasma H2S levels” value is “approximately 50%”. In addition, in data set [2] (higher dose of PAG), the fetal weight entry is listed as “significantly decreased”. Moreover, the “cell invasion compared with vehicle control” value in data set [3] was “significant reduction”. For the same compound, the blood pressure entry in data set [4] is recorded as “elevated”.
For `C1COCCN1.COc1ccc(P(=S)(S)N2CCOCC2)cc1` (centres unmarked) [GYY4137, morpholin-4-ium 4 methoxy phenyl(morpholino)phosphinodithiolate], in data set [2] (setting [6]), the “all the changes of PAG-treated pregnant mice (blood pressure, AST)” value is reported as “abrogated” and the “fetal growth compromised by the CSE inhibitor” value was “restored”. In data set [2] (setting [7]), the “plasma levels of sEng induced by CSE inhibition” value was “inhibited” and the “plasma levels of sFlt-1 induced by CSE inhibition” value is recorded as “inhibited”. Also, in data set [2] (GYY4137 with PAG), the “blood pressure compromised by PAG-treatment” value was “rescued” and the “liver function compromised by PAG-treatment” value is reported as “rescued”. In addition, in data set [2] (GYY4137 with PAG 50 mg/kg), the “placental vascular defect due to inhibition of CSE activity” value is recorded as “restored”.
Turning to `[Na+].[SH-]` [NaHS, sodium hydrogen sulfide], in data set [5], the “ability of HUVECs to form tube-like structure” value is on record as “partially restored”.
